Data published in patent US20090088432A1, “Thiazolinones and Oxazolinones and their Use as Ptp1b Inhibitors” (priority 2005, published 2009).

target: T1, Recombinant human Protein-tyrosine phosphatase1B (PTP1B) (Homo sapiens, UniProt P18031); experiment: PTP1B enzyme inhibition assay (pNpp substrate); format: biochemical; conditions: inhibition of recombinant human PTP1B, pNpp 5 mM, 30 mins at 25° C; inhibitor concentration not given
T1 construct: Recombinant human Protein-tyrosine phosphatase1B (PTP1B) (amino acid 1-322 Biomol, USA); purchased Biomol, USA
T1 sequence (P18031 1-322): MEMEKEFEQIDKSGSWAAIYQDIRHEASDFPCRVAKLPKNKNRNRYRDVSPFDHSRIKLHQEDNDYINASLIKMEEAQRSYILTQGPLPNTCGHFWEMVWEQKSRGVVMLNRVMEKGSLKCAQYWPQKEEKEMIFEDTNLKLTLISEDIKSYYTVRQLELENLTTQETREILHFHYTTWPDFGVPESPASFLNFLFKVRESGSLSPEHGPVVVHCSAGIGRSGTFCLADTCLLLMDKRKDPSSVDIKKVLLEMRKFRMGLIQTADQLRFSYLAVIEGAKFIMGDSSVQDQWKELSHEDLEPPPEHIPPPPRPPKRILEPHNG
Protocol: Protein tyrosine phosphatase 1B (PTP1B) is an intracellular enzyme which functions by removing the phosphate groups from phosphorylated tyrosine residues of cellular proteins. PTP1B has been implicated as a negative regulator of insulin action and therefore is of therapeutic interest. The ability of the test compounds to inhibit the activity of PTP1B is determined using an enzyme inhibition assay.
The assay is performed using two independent substrates of PTP1B namely, p-nitrophenyl phosphate (pNpp) and the phosphorylated Epidermal growth factor receptor peptide (EGFR).
In the assay performed with pNpp, the action of PTP1B results in the release of p-nitrophenol, which is yellow in colour and can be measured at 410 nm. In the case of the assay using EGFR, action of PTP1B results in the release of free phosphate group. This is trapped using a reagent containing ammonium molybdate and malachite green resulting in a colored complex whose absorbance can be measured at 620 nm.
1× Assay buffer 50 mM HEPES (pH 7.4) • 1 mM EDTA • 1 mM DTT • 0.05% Igepal® CA-630
Dilute recombinant Human PTP1B 1:150 in 1× Assay buffer for 10× stock,
Prepare 10× stock of pNpp (50 mM) in 1× Assay buffer
Prepare 100× stock in 100% DMSO, dilute 1:10 with 1× Assay buffer to get 10× stock in 10% DMSO.
PTP1B inhibition assay was performed using recombinant human PTP1B. PTP1B (0.016 μg/well) was incubated in a buffer containing 50 mM HEPES, 1 mM DTT, 1 mM EDTA and 0.05% Igepal® CA-630 with or without inhibitor (10× stock, final DMSO concentration is 1%) for 30 mins at 25° C. This was followed by addition of p-Nitrophenyl phosphate (pNpp) substrate (5 mM). The final volume of the reaction mixture is 50 μL and experiment was done in 96 well half area plate. The incubation was continued for 30 mins at 25° C. The conversion of pNpp to p-Nitrophenol (pNp) was measured at 410 nm in Spectramaxplus Spectrophotometer (Molecular Devices, USA).

Compound | Activity Score
CS(=O)(=O)NC(=O)Cc1ccc(NC2=NC(=O)C(=Cc3ccc(-c4ccccc4)cc3)S2)cc1.[Na] [Compound 225, N-{2-[4-(5-Biphenyl-4-ylmethylene-4-oxo-4,5-dihydro-thiazol-2-ylamino)-phenyl]-acetyl}-methanesulfonamide, sodium salt] | (+) (+ = 10-20% inhibition)
N#Cc1ccc(-c2ccc(C=C3SC(Nc4ccc(CC(=O)O)cc4)=NC3=O)cc2)cc1 [Compound 243, {4-[5-(4′-Cyano-biphenyl-4-ylmethylene)-4-oxo-4,5-dihydro-thiazol-2-ylamino]-phenyl}-acetic acid] | (+++) (+++ = >50% inhibition)
O=C([O-])Cc1ccc(NC2=NC(=O)C(=Cc3cc4ccccc4cc3OCc3ccc(F)cc3)S2)cc1.[Na+] [Compound 113, (4-{5-[3-(4-Fluoro-benzyloxy)-naphthalen-2-ylmethylene-4-oxo-4,5-dihydro-thiazol-2-ylamino)-phenyl]-acetyl}-sodium acetate] | (+++) (+++ = >50% inhibition)
CCOc1ccc(-c2ccc(C=C3SC(Nc4ccc(CC(=O)NS(=O)(=O)c5ccc(C)cc5)cc4)=NC3=O)cc2)cc1.[Na] [Compound 214, N-(2-{4-[5-(4′-Ethoxy-biphenyl-4-ylmethylene)-4-oxo-4,5-dihydro-thiazol-2-ylamino]-phenyl}-acetyl)-4-methyl-benzenesulfonamide sodium salt] | (+++) (+++ = >50% inhibition)
O=C(O)Cc1ccc(NC2=NC(=O)C(=Cc3ccc4[nH]ccc4c3)S2)cc1 [Compound 170, {4-[5-(H-Indol-5-ylmethylene)-4-oxo-4,5-dihydro-thiazol-2-ylamino]-phenyl}-acetic acid] | (+++) (+++ = >50% inhibition)
O=C(O)Cc1ccc(NC2=NC(=O)C(=Cc3cccc(N4C(=O)c5ccccc5C4=O)c3)S2)cc1 [Compound 50, (4-{5-[3-(1,3-Dioxo-1,3-dihydro-isoindol-2-yl)-benzylidene]-4-oxo-4,5-dihydro-thiazol-2-ylamino}-phenyl)-acetic acid] | (+++) (+++ = >50% inhibition)
CCC(C(=O)[O-])c1ccc(NC2=NC(=O)C(=Cc3cc4ccccc4cc3OCc3ccccc3)S2)cc1.[Na+] [Compound 84, 2-{4-[L-(3-Benzyloxy-naphthalen-2-ylmethylene)-4-oxo-4,5-dihydro-thiazol-2-ylamino]-phenyl}-sodium butyrate] | (+++) (+++ = >50% inhibition)
O=C([O-])CCc1ccc(NC2=NC(=O)C(=Cc3cc4ccccc4cc3OCc3ccccc3)S2)cc1.[Na+] [Compound 96, 3-{4-[5-(3-Benzyloxy-naphthalen-2-ylmethylene)-4-oxo-4,5-dihydro-thiazol-2-lamino]-phenyl}-sodium propionate] | (+++) (+++ = >50% inhibition)
CSc1ccc(-c2ccc(C=C3SC(Nc4ccc(CC(=O)NS(=O)(=O)c5ccc(C(F)(F)F)cc5)cc4)=NC3=O)c(F)c2)cc1.[Na] [Compound 239, N-(2-{4-[5-(3-Fluoro-4′-methylsulfanyl-biphenyl-4-ylmethylene)-4-oxo-4,5-dihydro-thiazol-2-ylamino]-phenyl}-acetyl)-4-trifluoromethyl-benzenesulfonamide sodium salt] | (+) (+ = 10-20% inhibition)
COc1ccc2cc(C=C3SC(Nc4ccc(CC(=O)O)cc4)=NC3=O)ccc2c1 [Compound 7, {4-[5-(6-Methoxy-naphthalen-2-ylmethylene)-4-oxo-4,5-dihydro-thiazol-2-ylamino]-phenyl}-acetic acid] | (+++) (+++ = >50% inhibition)
CCC(C(=O)O)c1ccc(NC2=NC(=O)C(=Cc3cc4ccccc4cc3OCc3ccccc3)S2)cc1 (stereo not shown) [Compound 48, 2-{4-[5-(3-Benzyloxy-naphthalen-2-ylmethylene)-4-oxo-4,5-dihydro-thiazol-2-ylamino]-phenyl}-butyric acid] | (+++) (+++ = >50% inhibition)
O=C(O)CCc1ccc(NC2=NC(=O)C(=Cc3cn(CC(=O)O)c4ccccc34)S2)cc1 [Compound 43, 3-{4-[5-(1-Carboxymethyl-1H-indo-3-ylmethylene)-4-oxo-4,5-dihydro-thiazol-2-ylamino]-phenyl}-propionic acid] | (+++) (+++ = >50% inhibition)

Second part, the compound after the results:

Activity Score | Compound
(+++) (+++ = >50% inhibition) | (4-{2-[5-(3-Benzyloxy-naphthalen-2-ylmethylene)-4-oxo-4,5-dihydro-thiazol-2-ylamino]-acetyl amino}-phenyl)-acetic acid [Compound 22]
(++) (++ = 20-50% inhibition) | O=C(O)Cc1ccc(NC2=NC(=O)C(=Cc3cccn3-c3ccc(Br)cc3)S2)cc1 [Compound 60, (4-{5-[1-(4-Bromo-phenyl)-1H-pyrrol-2-ylmethylene]-4-oxo-4,5-dihydro-thiazol-2-ylamino}-phenyl)-acetic acid]
(+++) (+++ = >50% inhibition) | O=C(O)Cn1ccc2cc(NC3=NC(=O)C(=Cc4cc5ccccc5cc4OCc4ccccc4)S3)ccc21 [Compound 47, {5-[5-(3-Benzyloxy-naphthalen-2-ylmethylene)-4-oxo-4,5-dihydro-thiazol-2-ylamino]-indol-1-yl}-acetic acid]
(+) (+ = 10-20% inhibition) | O=C(O)Cc1ccc(NC2=NC(=O)C(=Cc3cccc(-n4cncn4)c3)S2)cc1 [Compound 87, {4-[4-Oxo-5-(3-[1,2,4]triazol-1-yl-benzylidene)-4,5-dihydro-thiazol-2-ylamino]-phenyl}-acetic acid]
(++) (++ = 20-50% inhibition) | O=C(O)CC(C(=O)O)c1ccc(NC2=NC(=O)C(=Cc3ccc(-c4ccccc4)cc3)S2)cc1 (stereo not shown) [Compound 55, 2-[4-(5-Biphenyl-4-ylmethylene-4-oxo-4,5-dihydro-thiazol-2-ylamino)-phenyl]-succinic acid]
(+++) (+++ = >50% inhibition) | O=C(O)Cc1ccc(NC2=NC(=O)C(=Cc3cccc(N4CCN(c5ccccn5)CC4)c3)S2)cc1 [Compound 90, (4-{4-Oxo-5-[3-(4-pyridin-2-yl-piperazin-1-yl)-benzylidene]-4,5-dihydro-thiazol-2-ylamino}-phenyl)-acetic acid]
(+++) (+++ = >50% inhibition) | COc1cc2ccccc2cc1C=C1SC(Nc2ccc(CCC(=O)[O-])cc2)=NC1=O.[Na+] [Compound 177, 3-{-4-[5-(3-Methoxy-naphthalen-2-ylmethylene)-4-oxo-4,5-dihydro-thiazol-2-ylamino]-phenyl}-sodium propionate]
(++) (++ = 20-50% inhibition) | O=C1N=C(Nc2ccc(CC(C(=O)O)C(=O)O)cc2)SC1=Cc1ccc(-c2ccccc2)cc1 [Compound 67, 2-[4-(5-Biphenyl-4-ylmethylene-4-oxo-4,5-dihydro-thiazol-2-ylamino)-benzyl]-malonic acid]
(+++) (+++ = >50% inhibition) | O=C(O)Cc1ccc(NC2=NC(=O)C(=Cc3coc4ccccc4c3=O)S2)cc1 [Compound 71, {4-[4-oxo-5-(4-oxo-4H-chromen-3-ylmethylene)-4,5-dihydro-thiazol-2-ylamino]-phenyl}-acetic acid]
(+++) (+++ = >50% inhibition) | O=C(Cc1ccc(NC2=NC(=O)C(=Cc3ccc(-c4ccccc4)cc3)S2)cc1)NS(=O)(=O)c1ccc(C(F)(F)F)cc1.[Na] [Compound 219, N-{2-[4-(5-Biphenyl-4-ylmethylene-4-oxo-4,5-dihydro-thiazol-2-ylamino)-phenyl]-acetyl}-4-trifluoromethyl-benzenesulfonamide, sodium salt]
(+) (+ = 10-20% inhibition) | O=C(O)Cc1ccc(NC2=NC(=O)C(=Cc3ccccc3)S2)cc1 [Compound 5, [4-(5-Benzylidene-4-oxo-4,5-dihydro-thiazol-2-ylamino)-phenyl]-acetic acid]
(++) (++ = 20-50% inhibition) | O=C(O)Cc1csc(NC2=NC(=O)C(=Cc3ccc(-c4ccccc4)cc3)S2)n1 [Compound 130, [2-(5-Biphenyl-4-ylmethylene-4-oxo-4,5-dihydro-thiazol-2-ylamino)-thiazol-4-yl]-acetic acid]
(+++) (+++ = >50% inhibition) | CC(C(=O)O)c1ccc(NC2=NC(=O)C(=Cc3ccc(-c4ccccc4)cc3)S2)cc1 (stereo not shown) [Compound 54, 2-[4-(5-Biphenyl-4-ylmethylene-4-oxo-4,5-dihydro-thiazol-2-ylamino)-phenyl]-propionic acid]
